Results from patent US20230159467A1, “NOVEL COMPOUNDS USEFUL IN THE TREATMENT AND/OR PREVENTION OF A DISEASE, DISORDER OR CONDITION ASSOCIATED WITH ANGIOTENSIN II” (Vicore Pharma AB, priority 2020, published 2023).

How the values were obtained:
[1] = Stability in mouse liver microsomes; type: in vitro ADME; conditions: half-life
Procedure: Stability in liver microsomes. Human, mouse and rat liver microsomes were used to assess the metabolic stability for the compounds. Metabolic stability was determined in 0.5 mg/mL human, mouse or rat liver microsomes at a compound concentration of 1 μM in 100 mM potassium phosphate buffer (pH 7.4) in a total incubation volume of 500 μL by Eurofins. The assay matrix was: human liver microsomes: mixed gender and pool of 50, rat liver microsomes: male, Sprague-Dawley, pool of 100 or more and mouse liver microsomes: male,CD-1, pool of 250 or more. Final microsomal protein concentration: 0.1mg/mL. The test concentration was 0.1 μM with 0.01% DMSO, 0.25% acetonitrile and 0.25% methanol by default. […] The reaction was initiated by adding NADPH-generating system and was incubated for 0, 15, 30, 45, and 60 min. The reaction was stopped by transferring the incubation mixture to acetonitrile/methanol. Samples were then mixed and centrifuged. Four reference compounds were tested in each assay. Propranolol and imipramine are relatively stable, whereas verapamil and terfenadine are readily metabolized inhuman liver microsomes. Samples were analyzed by HPLC-MS/MS using selected reaction monitoring. The HPLC system consisted of a binary LC pump with autosampler, a C-18 column, and a gradient. Peak areas corresponding to the test compound were recorded. The compound remaining was calculated by comparing the peak area at each time point to time zero. The half-life was calculated from the slope of the initial linear range of the logarithmic curve of compound remaining (%) vs. time, assuming first order kinetics. In addition, the intrinsic clearance (Clint) was calculated.^19,20

CYP2C19 = CYP2C19 (Homo sapiens, UniProt P33261); experiment: CYP450 inhibition assay, pooled human liver microsomes, omeprazole substrate; conditions: for inhibition at 10 min, 10 µM: both, human, pooled human liver microsomes, pH 7.4, probe omeprazole; for CYP 450 Inhibition CYP2C19: at 10 μM
Chain of CYP2C19 (P33261 whole entry): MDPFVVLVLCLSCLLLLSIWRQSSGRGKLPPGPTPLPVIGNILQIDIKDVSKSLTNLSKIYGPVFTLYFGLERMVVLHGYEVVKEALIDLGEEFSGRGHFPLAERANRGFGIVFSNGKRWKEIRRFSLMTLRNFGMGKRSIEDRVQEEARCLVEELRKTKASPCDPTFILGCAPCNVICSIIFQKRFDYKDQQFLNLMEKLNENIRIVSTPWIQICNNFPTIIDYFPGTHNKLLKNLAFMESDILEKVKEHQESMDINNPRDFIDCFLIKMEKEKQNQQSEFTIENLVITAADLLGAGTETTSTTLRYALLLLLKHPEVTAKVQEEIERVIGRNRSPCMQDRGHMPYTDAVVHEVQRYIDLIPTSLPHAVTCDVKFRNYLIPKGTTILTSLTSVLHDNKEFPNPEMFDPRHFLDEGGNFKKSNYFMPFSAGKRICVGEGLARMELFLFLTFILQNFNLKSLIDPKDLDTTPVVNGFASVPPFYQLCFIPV

CYP1A = biological target: T1, CYP1A (Homo sapiens, UniProt P05177); experiment: CYP450 inhibition assay, pooled human liver microsomes, phenacetin substrate; conditions: for inhibition at 10 min, 10 µM: both, human, pooled human liver microsomes, pH 7.4, probe phenacetin; for CYP 450 Inhibition CYP1A: at 10 μM
T1 sequence (P05177 1-516): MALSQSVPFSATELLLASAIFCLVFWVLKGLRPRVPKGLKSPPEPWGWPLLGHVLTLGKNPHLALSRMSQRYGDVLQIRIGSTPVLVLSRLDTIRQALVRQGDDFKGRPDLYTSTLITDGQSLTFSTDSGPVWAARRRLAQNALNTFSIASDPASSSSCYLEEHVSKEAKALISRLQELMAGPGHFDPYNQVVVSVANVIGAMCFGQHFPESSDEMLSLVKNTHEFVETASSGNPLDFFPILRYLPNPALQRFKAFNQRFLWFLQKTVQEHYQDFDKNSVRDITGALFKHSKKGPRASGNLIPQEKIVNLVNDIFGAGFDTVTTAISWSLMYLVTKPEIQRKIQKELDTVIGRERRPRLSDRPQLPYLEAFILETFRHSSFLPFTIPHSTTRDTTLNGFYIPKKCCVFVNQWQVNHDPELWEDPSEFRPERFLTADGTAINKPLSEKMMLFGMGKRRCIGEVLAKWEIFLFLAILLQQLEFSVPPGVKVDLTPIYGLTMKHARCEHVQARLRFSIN

CYP3A [2] = experiment: CYP450 inhibition assay, pooled human liver microsomes, testosterone substrate; conditions: both, human, pooled human liver microsomes, pH 7.4, probe testosterone, CYP 450 Inhibition CYP3A testosterone, at 10 μM
Procedure: The compound was tested at a single concentration (10 μM) with 0.1% DMSO. […] The reaction was initiated by adding a NADPH-generating system. The reaction was allowed for 10 min and stopped by transferring the reaction mixture to acetonitrile/methanol. Samples were mixed and centrifuged. Supernatants were used for HPLC-MS/MS of the respective metabolite. The activity of human cytochrome P450 (CYP) enzymes were determined by following the formation of a metabolite of the probe substrate. The following enzymes were evaluated for inhibition using the listed reference substrates and reference inhibitors:
CYP1A—phenacetin (reference inhibitor furafylline), CYP2B6—bupropion (reference inhibitor clopidogre), CYP2C8-amodiaquine (reference inhibitor montelukast), CYP2C9—diclofenac (reference inhibitor sulfaphenazole), CYP2C19—omeprazole (reference inhibitor oxybutynin), CYP2D6—dextromethorphan (reference inhibitor quinidine), CYP3A—midazolam (reference inhibitor ketoconazol) and CYP3A—testosterone (reference inhibitor ketoconazol). The reference inhibitors were tested in each assay at multiple concentrations to obtain an IC50 value. Peak areas corresponding to the metabolite were recorded. The percent of control activity was calculated by comparing the peak area in the presence of the test compound to the control samples containing the same solvent. Subsequently, the percent inhibition was calculated by subtracting the percent control activity from 100. The IC50 value (concentration causing a half-maximal inhibition of the control value) was determined by non-linear regression analysis of the concentration-response curve using the Hill equation.

CYP2D6 = CYP2D6 (Homo sapiens, UniProt P10635); experiment: CYP450 inhibition assay, pooled human liver microsomes, dextromethorphan substrate; conditions: for inhibition at 10 min, 10 µM: both, human, pooled human liver microsomes, pH 7.4, probe dextromethorphan; for CYP 450 Inhibition CYP2D6: at 10 μM
Chain of CYP2D6 (P10635 whole entry): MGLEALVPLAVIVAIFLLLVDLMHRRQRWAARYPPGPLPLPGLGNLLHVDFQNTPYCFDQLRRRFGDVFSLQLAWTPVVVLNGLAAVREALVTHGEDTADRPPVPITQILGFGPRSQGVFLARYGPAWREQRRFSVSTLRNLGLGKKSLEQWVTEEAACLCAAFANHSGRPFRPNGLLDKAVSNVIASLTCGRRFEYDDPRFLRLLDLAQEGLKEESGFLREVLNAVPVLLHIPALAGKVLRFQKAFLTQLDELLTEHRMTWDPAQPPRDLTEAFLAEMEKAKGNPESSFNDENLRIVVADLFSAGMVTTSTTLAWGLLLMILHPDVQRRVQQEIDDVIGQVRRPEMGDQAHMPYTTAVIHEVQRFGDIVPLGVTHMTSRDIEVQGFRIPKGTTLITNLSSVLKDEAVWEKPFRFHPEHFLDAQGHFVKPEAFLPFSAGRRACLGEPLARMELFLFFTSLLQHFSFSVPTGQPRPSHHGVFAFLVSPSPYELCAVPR

CYP2B6 = biological target: T2, CYP2B6 (Homo sapiens, UniProt P20813); experiment: CYP450 inhibition assay, pooled human liver microsomes, bupropion substrate; conditions: for inhibition at 10 min, 10 µM: both, human, pooled human liver microsomes, pH 7.4, probe bupropion; for CYP 450 Inhibition CYP2B6: at 10 μM
T2 sequence (P20813 1-491): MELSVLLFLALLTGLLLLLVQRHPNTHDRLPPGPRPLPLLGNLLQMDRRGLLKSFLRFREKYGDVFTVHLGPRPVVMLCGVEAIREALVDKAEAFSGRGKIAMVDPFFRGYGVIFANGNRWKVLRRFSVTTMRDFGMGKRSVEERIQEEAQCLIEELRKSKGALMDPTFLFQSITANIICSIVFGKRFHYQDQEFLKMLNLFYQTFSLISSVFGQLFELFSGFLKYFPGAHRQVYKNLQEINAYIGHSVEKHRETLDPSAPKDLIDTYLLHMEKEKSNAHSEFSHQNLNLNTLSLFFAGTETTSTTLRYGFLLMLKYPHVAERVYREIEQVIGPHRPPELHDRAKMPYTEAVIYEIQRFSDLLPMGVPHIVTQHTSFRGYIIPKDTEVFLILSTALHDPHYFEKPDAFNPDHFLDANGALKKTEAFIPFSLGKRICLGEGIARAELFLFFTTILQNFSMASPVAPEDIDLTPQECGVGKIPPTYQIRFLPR

CYP3A [3] = experiment: CYP450 inhibition assay, pooled human liver microsomes, midazolam substrate; conditions: for inhibition at 10 min, 10 µM: both, human, pooled human liver microsomes, pH 7.4, probe midazolam; for CYP 450 Inhibition CYP3A midazolam: at 10 μM, midazolam substrate

SMILES | Stability in liver microsomes MLM [1] [min] | inhibition at 10 min, 10 µM (CYP2C19) [%] | inhibition at 10 min, 10 µM (CYP1A) [%] | inhibition at 10 min, 10 µM (CYP3A [2]) [%] | inhibition at 10 min, 10 µM (CYP2D6) [%] | inhibition at 10 min, 10 µM (CYP2B6) [%] | inhibition at 10 min, 10 µM (CYP3A [3]) [%] | CYP 450 Inhibition CYP2C19 (CYP2C19) [%] | CYP 450 Inhibition CYP1A (CYP1A) [%] | CYP 450 Inhibition CYP2D6 (CYP2D6) [%] | CYP 450 Inhibition CYP2B6 (CYP2B6) [%] | CYP 450 Inhibition CYP3A midazolam (CYP3A [3]) [%]
CCCCOC(=O)[N-]S(=O)(=O)c1sc(CC(C)C)cc1-c1ccc(Cn2ccnc2C(C)(C)C)cc1.[K+] [Example 11B, Potassium (butoxycarbonyl)((3-(4-((2-(tert-butyl)-1H-imidazol-1-yl)methyl)phenyl)-5-isobutylthiophen-2-yl)sulfonyl)amide] | 10 | 66 | 8.4 | 21 | 14 | 51 | -5.1 | – | – | – | – | –
COC(=O)NS(=O)(=O)c1sc(CC(C)C)nc1-c1ccc(Cn2ccnc2C(C)(C)C)cc1 [Example 3, Methyl ((4-(4-((2-(tert-butyl)-1H-imidazol-1-yl)methyl)phenyl)-2-isobutylthiazol-5-yl)sulfonyl) carbamate] | >60 | – | – | 2.7 | – | – | – | 38 | 8.4 | 12 | 24 | 5.4
COC(=O)[N-]S(=O)(=O)c1ccc(CC(C)C)cc1-c1ccc(Cn2ccnc2C(C)(C)O)cc1.[K+] [Example 8B, Potassium ((4′-((2-(2-hydroxypropan-2-yl)-1H-imidazol-1-yl)methyl)-5-isobutyl-[1,1′-biphenyl]-2-yl)sulfonyl)(methoxycarbonyl)amide] | >60 | 45 | 5.7 | 10.7 | 2.5 | 28 | 1.3 | – | – | – | – | –
COC(=O)NS(=O)(=O)c1ccc(CC(C)C)cc1-c1ccc(Cn2ccnc2C(C)(C)C)cc1 [Example 1A, Methyl ((4′-((2-(tert-butyl)-1H-imidazol-1-yl)methyl)-5-isobutyl-[1,1′-biphenyl]-2-yl)sulfonyl)carbamate] | >60 | 38 | 11 | 14 | 9 | 18 | 0 | – | – | – | – | –
CCCCOC(=O)NS(=O)(=O)c1sc(CC(C)C)nc1-c1ccc(Cn2ccnc2C(C)(C)C)cc1 [Example 4, Butyl ((4-(4-((2-(tert-butyl)-1H-imidazol-1-yl)methyl)phenyl)-2-isobutylthiazol-5-yl)sulfonyl) carbamate] | 7 | – | – | 7.5 | – | – | – | 66 | −7.3 | 12 | 29 | 24
